Data taken from PubChem BioAssay (NCI).
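The concentration for 50% growth inhibition is given as GI50. TGI is the concentration that stops growth completely.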

How the values were obtained:
Assay in all cases: NCI anticancer screen, dose series, 384-well format; in the data active = GI50 below about 0.43 µM; inactive = the rest
[1] = system: OVCAR-8 ovarian
[2] = system: MDA-MB-231 breast
[3] = system: IGROV1 ovarian
[4] = system: NCI-H460 NSCLC
[5] = system: U251 glioblastoma
[6] = system: SK-MEL-5 melanoma
[7] = system: MOLT-4 leukemia
[8] = system: NCI-H23 lung
[9] = system: PC-3 prostate
[10] = system: BT-549 breast
[11] = system: OVCAR-5 ovarian
[12] = system: NCI-H322M lung
[13] = system: A549 NSCLC
[14] = system: SN12C renal
[15] = system: RPMI-8226 leukemia
[16] = system: HOP-92 NSCLC
[17] = system: DU-145 prostate
[18] = system: ACHN renal
[19] = system: MDA-MB-435 melanoma
[20] = system: HL-60(TB) leukemia
[21] = system: UACC-62 melanoma
[22] = system: 786-0 renal
[23] = system: SNB-19 CNS
[24] = system: NCI-H522 lung
[25] = system: HCC-2998 colon
[26] = system: SF-539 CNS
[27] = system: UO-31 renal
[28] = system: CAKI-1 renal
[29] = system: SK-MEL-28 melanoma
[30] = system: MDA-MB-468 breast
[31] = system: HCT-15 colon
[32] = system: NCI-H226 lung
[33] = system: HOP-62 NSCLC
[34] = system: SW-620 colon
[35] = system: LOX IMVI melanoma
[36] = system: HS 578T breast
[37] = system: MCF7 breast
[38] = system: SNB-75 CNS
[39] = system: SK-OV-3 ovarian
[40] = system: SR leukemia
[41] = system: RXF 393 renal
[42] = system: A498 renal
[43] = system: SF-268 CNS
[44] = system: HT29 colon
[45] = system: SF-295 CNS
[46] = system: TK-10 renal
[47] = system: OVCAR-3 ovarian
[48] = system: EKVX NSCLC
[49] = system: COLO 205 colon
[50] = system: OVCAR-4 ovarian
[51] = system: T-47D breast
[52] = system: CCRF-CEM leukemia
[53] = system: HCT-116 colon
[54] = system: MALME-3M melanoma
[55] = system: M14 melanoma
[56] = system: KM12 colon
[57] = system: UACC-257 melanoma
[58] = system: NCI/ADR-RES ovarian

CNC(=O)c1ccc(N2C(=S)N(c3cnc(C#N)c(C(F)(F)F)c3)C(=O)C23CCC3)cc1F
100 µM: TGI [40]
> 100 µM: TGI [1] | TGI [2] | TGI [3] | TGI [4] | TGI [5] | TGI [6] | TGI [7] | TGI [8] | TGI [9] | TGI [10] | TGI [11] | TGI [12] | TGI [13] | TGI [14] | TGI [15] | TGI [16] | TGI [17] | TGI [18] | TGI [19] | TGI [20] | TGI [21] | TGI [22] | TGI [23] | TGI [24] | TGI [25] | TGI [26] | TGI [27] | TGI [28] | TGI [29] | TGI [30] | TGI [31] | TGI [32] | TGI [33] | TGI [34] | TGI [35] | TGI [36] | TGI [37] | TGI [38] | TGI [39] | TGI [41] | TGI [42] | TGI [43] | TGI [44] | TGI [45] | TGI [46] | TGI [47] | TGI [48] | TGI [49] | TGI [50] | TGI [51] | TGI [52] | TGI [53] | TGI [54] | TGI [55] | TGI [56] | TGI [57] | TGI [58]
inactive: GI50 [1] > 100 µM | GI50 [2] > 100 µM | GI50 [3] > 100 µM | GI50 [4] > 100 µM | GI50 [5] > 100 µM | GI50 [6] > 100 µM | GI50 [7] 36.4 µM | GI50 [8] > 100 µM | GI50 [9] > 100 µM | GI50 [10] > 100 µM | GI50 [11] > 100 µM | GI50 [12] > 100 µM | GI50 [13] > 100 µM | GI50 [14] > 100 µM | GI50 [15] 69.1 µM | GI50 [16] > 100 µM | GI50 [17] > 100 µM | GI50 [18] > 100 µM | GI50 [19] > 100 µM | GI50 [20] 55.6 µM | GI50 [21] > 100 µM | GI50 [22] > 100 µM | GI50 [23] > 100 µM | GI50 [24] > 100 µM | GI50 [25] > 100 µM | GI50 [26] > 100 µM | GI50 [27] > 100 µM | GI50 [28] > 100 µM | GI50 [29] > 100 µM | GI50 [30] 55.5 µM | GI50 [31] > 100 µM | GI50 [32] > 95.1 µM | GI50 [33] > 100 µM | GI50 [34] > 100 µM | GI50 [35] > 100 µM | GI50 [36] > 100 µM | GI50 [37] > 100 µM | GI50 [38] > 100 µM | GI50 [39] > 100 µM | GI50 [40] 29 µM | GI50 [41] > 62.4 µM | GI50 [42] > 100 µM | GI50 [43] > 100 µM | GI50 [44] > 100 µM | GI50 [45] > 100 µM | GI50 [46] > 100 µM | GI50 [47] > 100 µM | GI50 [48] > 100 µM | GI50 [49] > 100 µM | GI50 [50] 90.4 µM | GI50 [51] > 72.4 µM | GI50 [52] > 100 µM | GI50 [53] > 100 µM | GI50 [54] > 100 µM | GI50 [55] > 100 µM | GI50 [56] > 100 µM | GI50 [57] > 100 µM | GI50 [58] > 100 µM

CNC(=O)c1c(C)oc2cc(Oc3ncnc4cc(OC)c(OC)cc34)ccc12
> 100 µM: TGI [1] | TGI [2] | TGI [3] | TGI [4] | TGI [5] | TGI [6] | TGI [7] | TGI [8] | TGI [9] | TGI [10] | TGI [11] | TGI [12] | TGI [13] | TGI [14] | TGI [15] | TGI [16] | TGI [17] | TGI [18] | TGI [19] | TGI [20] | TGI [21] | TGI [22] | TGI [23] | TGI [24] | TGI [25] | TGI [26] | TGI [27] | TGI [28] | TGI [29] | TGI [30] | TGI [31] | TGI [32] | TGI [33] | TGI [34] | TGI [35] | TGI [36] | TGI [37] | TGI [39] | TGI [40] | TGI [41] | TGI [42] | TGI [43] | TGI [44] | TGI [45] | TGI [46] | TGI [47] | TGI [48] | TGI [49] | TGI [50] | TGI [51] | TGI [52] | TGI [53] | TGI [54] | TGI [55] | TGI [56] | TGI [57] | TGI [58]
inactive: GI50 [1] > 100 µM | GI50 [2] > 100 µM | GI50 [3] > 100 µM | GI50 [4] > 100 µM | GI50 [5] > 100 µM | GI50 [6] > 100 µM | GI50 [7] > 87.1 µM | GI50 [8] > 100 µM | GI50 [9] > 100 µM | GI50 [10] 11.5 µM | GI50 [11] > 100 µM | GI50 [12] > 100 µM | GI50 [13] > 100 µM | GI50 [14] > 100 µM | GI50 [15] > 71.1 µM | GI50 [16] > 87.5 µM | GI50 [17] > 100 µM | GI50 [18] > 100 µM | GI50 [19] > 100 µM | GI50 [20] > 100 µM | GI50 [21] > 100 µM | GI50 [22] > 100 µM | GI50 [23] > 100 µM | GI50 [24] > 100 µM | GI50 [25] > 100 µM | GI50 [26] 10.2 µM | GI50 [27] > 96.2 µM | GI50 [28] > 100 µM | GI50 [29] > 100 µM | GI50 [30] > 100 µM | GI50 [31] > 100 µM | GI50 [33] > 100 µM | GI50 [34] > 100 µM | GI50 [35] > 100 µM | GI50 [36] 25.5 µM | GI50 [37] > 100 µM | GI50 [38] 4.3 µM | GI50 [39] > 100 µM | GI50 [40] > 61.5 µM | GI50 [41] > 21.9 µM | GI50 [42] > 100 µM | GI50 [43] > 100 µM | GI50 [44] > 100 µM | GI50 [45] > 100 µM | GI50 [46] > 100 µM | GI50 [47] > 100 µM | GI50 [48] > 100 µM | GI50 [49] > 100 µM | GI50 [50] > 100 µM | GI50 [51] > 100 µM | GI50 [52] > 100 µM | GI50 [53] > 100 µM | GI50 [54] > 100 µM | GI50 [55] > 100 µM | GI50 [56] > 100 µM | GI50 [57] > 100 µM | GI50 [58] > 100 µM
> 29.4 µM: TGI [38]
